This note sets out measurements from ChEMBL document CHEMBL4002601, “A triple exon-skipping luciferase reporter assay identifies a new CLK inhibitor pharmacophore” (Bioorg Med Chem Lett, 2017).

The test addresses Dual specificity protein kinase CLK3 (Homo sapiens, UniProt P49761). The test is described as follows: Inhibition of human CLK3 using ERMRPRKRQGSVRRRV as substrate in presence of [gamma-33P]ATP after 40 mins by scintillation counter method.

Dual specificity protein kinase CLK3, sequence (P49761 whole entry): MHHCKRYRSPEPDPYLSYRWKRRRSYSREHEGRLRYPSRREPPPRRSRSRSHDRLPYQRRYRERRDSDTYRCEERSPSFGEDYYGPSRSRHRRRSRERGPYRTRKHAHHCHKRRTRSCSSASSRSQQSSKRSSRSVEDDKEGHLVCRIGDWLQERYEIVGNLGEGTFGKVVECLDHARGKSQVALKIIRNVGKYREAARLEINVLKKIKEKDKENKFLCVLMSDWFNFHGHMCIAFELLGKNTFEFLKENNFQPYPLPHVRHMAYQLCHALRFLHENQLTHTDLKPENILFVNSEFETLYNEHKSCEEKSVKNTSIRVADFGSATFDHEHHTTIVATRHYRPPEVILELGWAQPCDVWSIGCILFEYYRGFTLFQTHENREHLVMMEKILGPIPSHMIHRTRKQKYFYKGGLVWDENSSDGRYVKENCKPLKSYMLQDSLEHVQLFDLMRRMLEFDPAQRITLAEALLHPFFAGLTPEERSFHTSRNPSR

What is called IC50 is the point on the concentration scale where inhibition reaches its midpoint. For `CC(C)n1cnc2c(Nc3cccc(Cl)c3)nc(N[C@H]3CCCC[C@@H]3N)nc21`, the IC50 is over 1000 nM. For `CC(C)n1cnc2c(Nc3cccc(Cl)c3)nc(N[C@@H]3CCCC[C@@H]3N)nc21` the value was over 1000 nM.
